According to ChEMBL document CHEMBL3351234, “Discovery of novel 2,4-diarylaminopyrimidine analogues (DAAPalogues) showing potent inhibitory activities against both wild-type and mutant ALK kinases” (J Med Chem, 2015):
In brackets after ≈: the same amount, converted by molar mass.

Key:
in vivo [1] = settings: rat, plasma, po, 2.5 mg/kg
in vivo [2] = settings: rat, po, 2.5 mg/kg
physchem [3] = settings: aqueous
physchem [4] = settings: aqueous; remark: listed apart in the source

Compound: CC(C)S(=O)(=O)c1ccccc1Nc1nc(Nc2cccc(NC(=O)CN)c2)ncc1Cl
- AUC(0-inf) (in vivo [1]): 454 ng·h/mL
- half-life (in vivo [2]): 30 min
- solubility (physchem [3]): < 100 µg/mL
- solubility (physchem [4]): 4000 µg/mL (≈ 8.42 mM)
